Reference: patent publication US20080139558A1, “QUINOLONES USEFUL AS INDUCIBLE NITRIC OXIDE SYNTHASE INHIBITORS” (KALYPSYS, INC., priority 2006, published 2008)

molecular target: T1, human iNOS (Homo sapiens, UniProt P35228); assay: DAN assay of nitric oxide production (hiNOS); type: cell-based; conditions: enzyme expressed in HEK293 cells transiently transfected with human iNOS
T1 construct: expressed in transfected cells; host or cells: HEK293
Procedure, shortened: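 Human iNOS transiently expressed in HEK293 cells; NO production quantified as nitrite via 2,3-diaminonaphthalene reaction forming fluorescent naphthotriazole.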

T1 sequence (P35228 whole entry): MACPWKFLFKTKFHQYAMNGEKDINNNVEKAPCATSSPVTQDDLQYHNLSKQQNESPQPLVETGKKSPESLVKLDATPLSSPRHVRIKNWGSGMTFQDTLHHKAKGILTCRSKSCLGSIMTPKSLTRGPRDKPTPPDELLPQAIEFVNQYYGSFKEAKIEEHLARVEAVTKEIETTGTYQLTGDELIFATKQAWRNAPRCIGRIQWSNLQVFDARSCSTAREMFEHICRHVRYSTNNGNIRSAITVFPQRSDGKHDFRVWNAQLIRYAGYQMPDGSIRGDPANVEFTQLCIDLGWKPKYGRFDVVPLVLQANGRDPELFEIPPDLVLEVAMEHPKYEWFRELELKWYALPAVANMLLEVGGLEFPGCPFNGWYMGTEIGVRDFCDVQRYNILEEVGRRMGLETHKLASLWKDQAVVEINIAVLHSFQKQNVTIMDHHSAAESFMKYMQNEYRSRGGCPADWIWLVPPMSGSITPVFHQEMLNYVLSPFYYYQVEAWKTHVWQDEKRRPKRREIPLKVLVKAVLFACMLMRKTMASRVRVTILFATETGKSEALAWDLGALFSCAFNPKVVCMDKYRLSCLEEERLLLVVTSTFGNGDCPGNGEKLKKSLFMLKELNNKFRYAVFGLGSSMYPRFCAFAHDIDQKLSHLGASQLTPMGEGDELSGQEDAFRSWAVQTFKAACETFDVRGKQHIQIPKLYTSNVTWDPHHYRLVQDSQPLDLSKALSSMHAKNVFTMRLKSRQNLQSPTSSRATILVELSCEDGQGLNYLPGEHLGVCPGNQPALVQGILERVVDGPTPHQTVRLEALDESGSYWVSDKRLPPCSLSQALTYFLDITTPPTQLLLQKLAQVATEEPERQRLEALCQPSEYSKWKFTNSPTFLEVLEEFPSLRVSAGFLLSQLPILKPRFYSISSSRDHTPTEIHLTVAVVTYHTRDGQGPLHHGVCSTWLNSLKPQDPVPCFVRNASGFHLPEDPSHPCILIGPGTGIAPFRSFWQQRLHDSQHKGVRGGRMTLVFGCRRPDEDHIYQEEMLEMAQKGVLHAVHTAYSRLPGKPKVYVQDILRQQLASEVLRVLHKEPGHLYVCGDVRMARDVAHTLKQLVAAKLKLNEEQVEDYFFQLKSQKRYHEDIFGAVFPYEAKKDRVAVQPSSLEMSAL

EC50	Structure (SMILES)
> 5 µM	O=c1cc(Cn2c(-c3ccc(F)cc3)nc3ccccc32)c2ccc(F)c(F)c2[nH]1 [Example 197, 7,8-Difluoro-4-((2-(4-fluorophenyl)-1H-benzo[d]imidazol-1-yl)methyl)quinolin-2(1H)-one]
> 5 µM	CN(C)Cc1nc2ccccc2n1Cc1cc(=O)[nH]c2c(F)c(F)ccc12 [Example 198, 4-((2-((Dimethylamino)methyl)-1H-benzo[d]imidazol-1-yl)methyl)-7,8-difluoroquinolin-2(1H)-one]
≤ 5 µM	Cc1cnccc1-c1nc2ccccc2n1Cc1cc(=O)[nH]c2c(F)c(F)ccc12 [Example 199, 7,8-Difluoro-4-((2-(3-methylpyridin-4-yl)-1H-benzo[d]imidazol-1-yl)methyl)quinolin-2(1H)-one]
> 5 µM	O=c1cc(Cn2c(N3CCOCC3)nc3ccccc32)c2ccc(F)c(F)c2[nH]1 [Example 200, 7,8-Difluoro-4-((2-morpholino-1H-benzo[d]imidazol-1-yl)methyl)quinolin-2(1H)-one]
> 5 µM	CN(C)c1nc2ccccc2n1Cc1cc(=O)[nH]c2c(F)c(F)ccc12 [Example 201, 4-((2-(Dimethylamino)-1H-benzo[d]imidazol-1-yl)methyl)-7,8-difluoroquinolin-2(1H)-one]
> 5 µM	CC(C)(C)c1nc2ccccc2n1Cc1cc(=O)[nH]c2c(F)c(F)ccc12 [Example 202, 4-((2-tert-Butyl-1H-benzo[d]imidazol-1-yl)methyl)-7,8-difluoroquinolin-2(1H)-one]
> 5 µM	O=c1cc(Cn2c(Cl)nc3ccccc32)c2ccc(F)c(F)c2[nH]1 [Example 203, 4-((2-Chloro-1H-benzo[d]imidazol-1-yl)methyl)-7,8-difluoroquinolin-2(1H)-one]
> 5 µM	O=c1cc(Cn2c(C3CCCCC3)nc3ccccc32)c2ccc(F)c(F)c2[nH]1 [Example 204, 4-((2-Cyclohexyl-1H-benzo[d]imidazol-1-yl)methyl)-7,8-difluoroquinolin-2(1H)-one]
> 5 µM	CC(C)(C)OC(=O)N1CCC(c2nc3ccccc3n2Cc2cc(=O)[nH]c3c(F)c(F)ccc23)CC1 [Example 205, tert-Butyl 4-(1-((7,8-difluoro-2-oxo-1,2-dihydroquinolin-4-yl)methyl)-1H-benzo[d]imidazol-2-yl)piperidine-1-carboxylate]
≤ 5 µM	O=c1cc(Cn2c(C3CCC3)nc3ccccc32)c2ccc(F)c(F)c2[nH]1 [Example 207, 4-((2-Cyclobutyl-1H-benzo[d]imidazol-1-yl)methyl)-7,8-difluoroquinolin-2(1H)-one]
≤ 5 µM	Cc1nccn1-c1nc2ccccc2n1Cc1cc(=O)[nH]c2c(F)c(F)ccc12 [Example 208, 7,8-Difluoro-4-((2-(2-methyl-1H-imidazol-1-yl)-1H-benzo[d]imidazol-1-yl)methyl)quinolin-2(1H)-one]
≤ 5 µM	O=c1cc(Cn2c(C3CCCC3)nc3ccccc32)c2ccc(F)c(F)c2[nH]1 [Example 209, 4-((2-Cyclopentyl-1H-benzo[d]imidazol-1-yl)methyl)-7,8-difluoroquinolin-2(1H)-one]
≤ 5 µM	CC(C)CCc1nc2ccccc2n1Cc1cc(=O)[nH]c2c(F)c(F)ccc12 [Example 211, 7,8-Difluoro-4-((2-isopentyl-1H-benzo[d]imidazol-1-yl)methyl)quinolin-2(1H)-one]
> 5 µM	O=c1cc(Cn2c(C3CCNCC3)nc3ccccc32)c2ccc(F)c(F)c2[nH]1 [Example 212, 7,8-Difluoro-4-((2-(piperidin-4-yl)-1H-benzo[d]imidazol-1-yl)methyl)quinolin-2(1H)-one]
> 5 µM	O=c1cc(Cn2c(CCC3CCCCC3)nc3ccccc32)c2ccc(F)c(F)c2[nH]1 [Example 213, 4-((2-(2-Cyclohexylethyl)-1H-benzo[d]imidazol-1-yl)methyl)-7,8-difluoroquinolin-2(1H)-one]
≤ 5 µM	O=c1cc(Cn2c(Cc3ccccc3)nc3ccccc32)c2ccc(F)c(F)c2[nH]1 [Example 214, 4-((2-Benzyl-1H-benzo[d]imidazol-1-yl)methyl)-7,8-difluoroquinolin-2(1H)-one]
≤ 5 µM	O=c1cc(Cn2c(CC3CCCC3)nc3ccccc32)c2ccc(F)c(F)c2[nH]1 [Example 215, 4-((2-(Cyclopentylmethyl)-1H-benzo[d]imidazol-1-yl)methyl)-7,8-difluoroquinolin-2(1H)-one]
> 5 µM	Cc1ccccc1Cc1nc2ccccc2n1Cc1cc(=O)[nH]c2c(F)c(F)ccc12 [Example 216, 7,8-Difluoro-4-((2-(2-methylbenzyl)-1H-benzo[d]imidazol-1-yl)methyl)quinolin-2(1H)-one]
≤ 5 µM	CCC(CC)c1nc2ccccc2n1Cc1cc(=O)[nH]c2c(F)c(F)ccc12 [Example 217, 7,8-Difluoro-4-((2-(pentan-3-yl)-1H-benzo[d]imidazol-1-yl)methyl)quinolin-2(1H)-one]
≤ 5 µM	O=c1cc(Cn2c(-n3ccnc3)nc3ccccc32)c2ccc(F)c(F)c2[nH]1 [Example 218, 4-((2-(1H-Imidazol-1-yl)-1H-benzo[d]imidazol-1-yl)methyl)-7,8-difluoroquinolin-2(1H)-one]

EC50	Structure (SMILES)
≤ 5 µM	CCCc1nc2ccccc2n1Cc1cc(=O)[nH]c2c(F)c(F)ccc12 [Example 219, 7,8-Difluoro-4-((2-propyl-1H-benzo[d]imidazol-1-yl)methyl)quinolin-2(1H)-one]
≤ 5 µM	CCc1nc2ccccc2n1Cc1cc(=O)[nH]c2c(F)c(F)ccc12 [Example 221, 7,8-Difluoro-4-((2-ethyl-1H-benzo[d]imidazol-1-yl)methyl)quinolin-2(1H)-one]
≤ 5 µM	Cc1cccc2c1nc(C(C)C)n2Cc1cc(=O)[nH]c2c(F)c(F)ccc12 [Example 224, 7,8-Difluoro-4-((2-isopropyl-4-methyl-1H-benzo[d]imidazol-1-yl)methyl)quinolin-2(1H)-one]
≤ 5 µM	Cc1cccc2c1nc(CC(C)C)n2Cc1cc(=O)[nH]c2c(F)c(F)ccc12 [Example 225, 7,8-Difluoro-4-((2-isobutyl-4-methyl-1H-benzo[d]imidazol-1-yl)methyl)quinolin-2(1H)-one]
> 5 µM	Cc1c(-c2nc3ccccc3n2Cc2cc(=O)[nH]c3c(F)c(F)ccc23)ncn1C [Example 226, 4-((2-(1,5-Dimethyl-1H-imidazol-4-yl)-1H-benzo[d]imidazol-1-yl)methyl)-7,8-difluoroquinolin-2(1H)-one]
> 5 µM	CC(C)c1nc2cc(F)c(F)cc2n1Cc1cc(=O)[nH]c2c(F)c(F)ccc12 [Example 229, 7,8-Difluoro-4-((5,6-difluoro-2-isopropyl-1H-benzo[d]imidazol-1-yl)methyl)quinolin-2(1H)-one]
> 5 µM	CC(C)c1nc2ccn(Cc3cc(=O)[nH]c4c(F)c(F)ccc34)cc-2n1 [Example 230, 7,8-Difluoro-4-((2-isopropyl-5H-imidazo[4,5-c]pyridin-5-yl)methyl)quinolin-2(1H)-one]
≤ 5 µM	Cc1noc(C)c1-c1nc2ccccc2n1Cc1cc(=O)[nH]c2c(F)c(F)ccc12 [Example 232, 4-((2-(3,5-Dimethylisoxazol-4-yl)-1H-benzo[d]imidazol-1-yl)methyl)-7,8-difluoroquinolin-2(1H)-one]
≤ 5 µM	Cn1nccc1-c1nc2ccccc2n1Cc1cc(=O)[nH]c2c(F)c(F)ccc12 [Example 233, 7,8-Difluoro-4-((2-(1-methyl-1H-pyrazol-5-yl)-1H-benzo[d]imidazol-1-yl)methyl)quinolin-2(1H)-one]
> 5 µM	CC(C)(C)Cc1nc2ccccc2n1Cc1cc(=O)[nH]c2c(F)c(F)ccc12 [Example 237, 7,8-Difluoro-4-((2-neopentyl-1H-benzo[d]imidazol-1-yl)methyl)quinolin-2(1H)-one]
> 5 µM	CC(C)c1nn(Cc2cc(=O)[nH]c3c(F)c(F)ccc23)c2ccccc12 [Example 239, 7,8-Difluoro-4-((3-isopropyl-1H-indazol-1-yl)methyl)quinolin-2(1H)-one]
> 5 µM	Cc1ccccc1-c1nc2ccccc2n1Cc1cc(=O)[nH]c2c(F)c(F)ccc12 [Example 240, 7,8-Difluoro-4-((2-o-tolyl-1H-benzo[d]imidazol-1-yl)methyl)quinolin-2(1H)-one]
≤ 5 µM	O=c1cc(Cn2c(-c3ccccc3Cl)nc3ccccc32)c2ccc(F)c(F)c2[nH]1 [Example 241, 4-((2-(2-Chlorophenyl)-1H-benzo[d]imidazol-1-yl)methyl)-7,8-difluoroquinolin-2(1H)-one]
> 5 µM	CN(C)c1ccccc1-c1nc2ccccc2n1Cc1cc(=O)[nH]c2c(F)c(F)ccc12 [Example 242, 4-((2-(2-(Dimethylamino)phenyl)-1H-benzo[d]imidazol-1-yl)methyl)-7,8-difluoroquinolin-2(1H)-one]
> 5 µM	Cc1ccc(C)c(-c2nc3ccccc3n2Cc2cc(=O)[nH]c3c(F)c(F)ccc23)c1 [Example 243, 4-((2-(2,5-Dimethylphenyl)-1H-benzo[d]imidazol-1-yl)methyl)-7,8-difluoroquinolin-2(1H)-one]
≤ 5 µM	O=c1cc(Cn2c(-c3ccncc3F)nc3ccccc32)c2ccc(F)c(F)c2[nH]1 [Example 244, 7,8-Difluoro-4-((2-(3-fluoropyridin-4-yl)-1H-benzo[d]imidazol-1-yl)methyl)quinolin-2(1H)-one]
≤ 5 µM	O=c1cc(Cn2c(-c3ccccc3C(F)(F)F)nc3ccccc32)c2ccc(F)c(F)c2[nH]1 [Example 245, 7,8-Difluoro-4-((2-(2-(trifluoromethyl)phenyl)-1H-benzo[d]imidazol-1-yl)methyl)quinolin-2(1H)-one]
> 5 µM	Cc1cccc(C)c1-c1nc2ccccc2n1Cc1cc(=O)[nH]c2c(F)c(F)ccc12 [Example 246, 4-((2-(2,6-Dimethylphenyl)-1H-benzo[d]imidazol-1-yl)methyl)-7,8-difluoroquinolin-2(1H)-one]
> 5 µM	O=c1cc(Cn2c(-c3c(F)cccc3F)nc3ccccc32)c2ccc(F)c(F)c2[nH]1 [Example 247, 4-((2-(2,6-Difluorophenyl)-1H-benzo[d]imidazol-1-yl)methyl)-7,8-difluoroquinolin-2(1H)-one]
